Measurements taken from patent US7879876B2, “Sulfonamide derivatives and use thereof for the modulation of metalloproteinases” (Merck Serono SA, priority 2005, dated 2011).

How the values were obtained:
Format in all cases: biochemical
[1] = target: 92 kDa gelatinase (MMP-9) (Homo sapiens, UniProt P14780); test: MMP-9 enzyme inhibition assay (coumarin-labeled peptide substrate); conditions: for IC50: read-out: IC50 MMP9; for inhibition at 5 µM: read-out: percentage inhibition MMP9
Outline: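 Recombinant human MMP-9 (APMA-activated if needed) was assayed in 100 mM Tris-HCl pH 7.6, 100 mM NaCl, 10 mM CaCl2, 0.05% Brij 35, with McaPLGLDpaAR substrate at 37° C. for 2 h. Fluorescence was read at ex 320/em 405 nm over ten 3-fold compound doses (100 μM–5.1 nM) in duplicate. IC50 came from a four-parameter fit.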

[2] = target: T1, gelatinase A (MMP-2) (Homo sapiens, UniProt P08253); test: MMP-2 enzyme inhibition assay (coumarin-labelled peptide substrate); conditions: read-out: IC50 MMP2
T1 sequence (P08253 110-660): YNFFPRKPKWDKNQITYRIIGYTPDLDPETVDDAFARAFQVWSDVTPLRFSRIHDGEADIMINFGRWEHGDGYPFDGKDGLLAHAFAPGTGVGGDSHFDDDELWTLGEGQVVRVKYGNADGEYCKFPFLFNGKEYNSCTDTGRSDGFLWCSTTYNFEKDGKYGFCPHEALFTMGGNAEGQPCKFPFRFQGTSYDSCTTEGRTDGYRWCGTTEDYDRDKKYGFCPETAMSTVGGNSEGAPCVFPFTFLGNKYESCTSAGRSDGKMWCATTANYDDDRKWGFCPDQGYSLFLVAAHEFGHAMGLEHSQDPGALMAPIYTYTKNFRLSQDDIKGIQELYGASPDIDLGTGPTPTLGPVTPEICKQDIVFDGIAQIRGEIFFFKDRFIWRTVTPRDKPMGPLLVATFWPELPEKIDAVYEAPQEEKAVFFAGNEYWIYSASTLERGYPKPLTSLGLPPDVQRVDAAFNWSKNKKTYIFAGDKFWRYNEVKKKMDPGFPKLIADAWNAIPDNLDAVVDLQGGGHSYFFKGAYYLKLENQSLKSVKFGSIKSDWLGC
Outline: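 Recombinant human MMP-2, APMA-activated if necessary, run as for the MMP-9 protocol: McaPLGLDpaAR substrate (8 μM working dilution) in 100 mM Tris-HCl pH 7.6, 100 mM NaCl, 10 mM CaCl2, 0.05% Brij 35; ten 3-fold concentrations (100 μM–5.1 nM) in duplicate, 2 h at 37° C. Fluorescence ex 320/em 405 nm, unstopped; IC50 from four-parameter fit.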

[3] = target: human ADAM17 (TACE) (Homo sapiens, UniProt P78536); test: TACE enzyme inhibition assay
Method: Compounds of the invention were tested to assess their activities as inhibitors of MMP-1, MMP-2, MMP-9, MMP-14, MMP-12 and TACE. MMP-9 Assay Protocol
Compounds of the invention can be tested for inhibitory activity against human ADAM17 in an assay using human Mca-(endo-1a-Dap(Dnp)-TNF-alpha(−5 to +6)amide as substrate (FEBS Letters, 2000, 275-279).
Stock solutions are prepared as followed: • Assay Buffer: 20 mM Hepes pH 7.5 (Fluka) containing 0.05% Brij 35 (Fluka) • Substrate: 6.1 mM human Mca-(endo-1a-Dap(Dnp)-TNF-alpha(−5 to +6)amide (Bachem) stock solution in 100% DMSO (stored at −20° C.); diluted to 5 μM in assay buffer. • Enzyme: Recombinant human ADAM17, appropriately diluted in assay buffer (1.5 μg/ml).
Test Compounds are prepared initially as 10 mM compound solution in 100% DMSO, diluted to 1 mM in 100% DMSO, then serially diluted 3-fold in 100% DMSO across a 96-well microtitre plate. Assay concentration range is typically between 100 μM to 0.01 nM. The assay is performed in a total volume of 100 μL per well in 96-well microtitre plates. Appropriate concentrations of test compounds dissolved in 10 μL of DMSO are added to the wells, followed by substrate solution (50 μL, 5 μM prepared by dilution of DMSO stock in assay buffer) and enzyme solution (40 μL). For each as say ten concentrations of test compound are examined in […]. Control wells lack either enzyme or test compound. The reactions are incubated at room temperature for 1.5 hours. The fluorescence at 405 nm is measured immediately with a fluorometer using 355 nm excitation, without stopping the reaction.
The effect of the test compound is determined from the dose response curve generated by the 10 duplicate concentrations of inhibitor. The IC50 (the concentration of compound required to give a 50% decrease in enzyme activity) is obtained by fitting data to the equation, Y=a+((b−a)/(1+(c/X)^d)). (Y=inhibition achieved for a particular dose; X=the dose in nM; a=minimum y or zero % inhibition; b=maximum y or 100% inhibition; c=is the IC50; d=is the slope). The result is rounded to one significant figure.

Chain of human ADAM17 (TACE) (P78536 215-824): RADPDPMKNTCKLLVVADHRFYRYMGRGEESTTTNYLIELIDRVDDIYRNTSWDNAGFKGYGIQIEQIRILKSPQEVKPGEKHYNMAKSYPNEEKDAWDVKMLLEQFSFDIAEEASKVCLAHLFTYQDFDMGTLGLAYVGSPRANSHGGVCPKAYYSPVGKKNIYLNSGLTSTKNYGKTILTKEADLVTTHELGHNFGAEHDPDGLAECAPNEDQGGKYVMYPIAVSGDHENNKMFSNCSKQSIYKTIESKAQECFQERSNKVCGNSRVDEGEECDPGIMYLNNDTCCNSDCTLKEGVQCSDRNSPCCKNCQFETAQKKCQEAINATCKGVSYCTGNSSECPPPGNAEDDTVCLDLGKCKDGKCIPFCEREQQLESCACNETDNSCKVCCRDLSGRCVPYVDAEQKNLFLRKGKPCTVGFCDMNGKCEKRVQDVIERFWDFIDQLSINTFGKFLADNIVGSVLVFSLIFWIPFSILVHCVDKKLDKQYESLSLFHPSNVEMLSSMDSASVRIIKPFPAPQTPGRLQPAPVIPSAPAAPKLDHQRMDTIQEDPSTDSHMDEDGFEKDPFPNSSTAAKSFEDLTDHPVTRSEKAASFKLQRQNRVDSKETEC
Chain of 92 kDa gelatinase (MMP-9) (P14780 107-707 limits assumed): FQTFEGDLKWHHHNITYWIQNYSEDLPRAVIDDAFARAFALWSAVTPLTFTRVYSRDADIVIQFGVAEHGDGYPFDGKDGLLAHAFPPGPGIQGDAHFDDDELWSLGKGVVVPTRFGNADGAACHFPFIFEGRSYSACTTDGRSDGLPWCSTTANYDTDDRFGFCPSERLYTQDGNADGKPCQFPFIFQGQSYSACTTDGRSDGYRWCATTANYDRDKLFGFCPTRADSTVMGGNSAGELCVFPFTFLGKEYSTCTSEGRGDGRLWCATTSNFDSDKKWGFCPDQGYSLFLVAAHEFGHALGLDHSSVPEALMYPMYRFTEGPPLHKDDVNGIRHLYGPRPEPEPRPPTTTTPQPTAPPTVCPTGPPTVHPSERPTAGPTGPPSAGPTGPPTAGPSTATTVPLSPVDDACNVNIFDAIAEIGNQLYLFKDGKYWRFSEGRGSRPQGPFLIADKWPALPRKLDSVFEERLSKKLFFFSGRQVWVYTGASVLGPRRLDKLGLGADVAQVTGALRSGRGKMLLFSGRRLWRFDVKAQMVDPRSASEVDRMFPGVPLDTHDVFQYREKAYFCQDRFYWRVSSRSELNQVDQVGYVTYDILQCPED

Row | IC50 [1] | IC50 [2] | IC50 [3] | inhibition at 5 µM [1] | Structure (SMILES)
1 | > 5000 nM | 27 nM | 13 nM | – | O=CN(O)[C@H](CS(=O)(=O)N1CCc2ccc(Cl)cc2C1)[C@H]1CCCO1 [Example 23, N-{(1S)-2-[(7-chloro-3,4-dihydroisoquinolin-2(1H)-yl)sulfonyl]-1-[(2R)-tetrahydrofuran-2-yl]ethyl}-N-hydroxyformamide]
2 | > 5000 nM | > 5000 nM | > 5000 nM | – | COc1cc2c(cc1OC)CN(S(=O)(=O)CC([C@H](O)CO)N(O)C=O)CC2 (stereo partly drawn) [Example 24, N-((2S)-1-{[(6,7-dimethoxy-3,4-dihydroisoquinolin-2(1H)-yl)sulfonyl]methyl}-2,3-dihydroxypropyl)-N-hydroxyformamide]
3 | > 5000 nM | 78 nM | 1200 nM | – | O=CN(O)C(CS(=O)(=O)N1CCc2cc(C(F)(F)F)ccc2C1)C1CCCC1 (stereo not drawn) [Example 25, N-(1-cyclopentyl-2-{[6-(trifluoromethyl)-3,4-dihydro-isoquinolin-2(1H)-yl]sulfonyl}ethyl)-N-hydroxyformamide]
4 | – | 60 nM | 1100 nM | 62% | CC(C)(C)CC(CS(=O)(=O)N1Cc2ccc(F)cc2C1)N(O)C=O (stereo not drawn) [Example 26, N-(1-{[(5-fluoro-1,3-dihydro-2H-isoindol-2-yl)sulfonyl]methyl}-3,3-dimethylbutyl)-N-hydroxyformamide]
5 | – | 58 nM | 506 nM | 13% | O=CN(O)[C@H](CS(=O)(=O)N1CCc2ccc(C(F)(F)F)cc2C1)[C@H]1CCCO1 [Example 27, N-hydroxy-N-((1S)-1-[(2R)-tetrahydrofuran-2-yl]-2-{[7-(trifluoromethyl)-3,4-dihydroisoquinolin-2(1H)-yl]sulfonyl}ethyl)formamide]
6 | – | 45 nM | 1280 nM | 21% | CC1(C)OC[C@H](C(CS(=O)(=O)N2CCc3ccc(C(F)(F)F)cc3C2)N(O)C=O)O1 (stereo partly drawn) [Example 28, N-(1-[(4S)-2,2-dimethyl-1,3-dioxolan-4-yl]-2-{[7-(trifluoro-methyl)-3,4-dihydroisoquinolin-2(1H)-yl]sulfonyl}ethyl)-N-hydroxyformamide]
7 | – | 150 nM | 277 nM | 40% | O=CN(O)[C@H](CS(=O)(=O)N1Cc2ccc(F)cc2C1)[C@H]1CCCO1 [Example 29, N-{(1S)-2-[(5-fluoro-1,3-dihydro-2H-isoindol-2-yl)-sulfonyl]-1-[(2R)-tetrahydrofuran-2-yl]ethyl}-N-hydroxyformamide]
8 | – | 880 nM | > 5000 nM | 3% | CCC#CCC(C)(C)C(CS(=O)(=O)N1CCc2cc(C(F)(F)F)ccc2C1)N(O)C=O (stereo not drawn) [Example 30, N-[2,2-dimethyl-1-({[6-(trifluoromethyl)-3,4-dihydro-isoquinolin-2(1H)-yl]sulfonyl}methyl)hept-4-yn-1-yl]-N-hydroxyformamide]
9 | – | 939 nM | > 5000 nM | 3% | CC(C)(Cc1ccccc1)C(CS(=O)(=O)N1CCc2cc(C(F)(F)F)ccc2C1)N(O)C=O (stereo not drawn) [Example 31, N-[2,2-dimethyl-3-phenyl-1-({[6-(trifluoromethyl)-3,4-dihydroisoquinolin-2(1H)-yl]sulfonyl}methyl)propyl]-N-hydroxyformamide]
10 | – | > 5000 nM | > 5000 nM | 4% | O=CN(O)[C@@H](CS(=O)(=O)N1CCc2ccc(C(F)(F)F)cc2C1)[C@H]1CCCO1 [Example 32, N-hydroxy-N-((1R)-1-[(2R)-tetrahydrofuran-2-yl]-2-{[7-(trifluoromethyl)-3,4-dihydroisoquinolin-2(1H)-yl]sulfonyl}ethyl)formamide]
11 | – | 151 nM | 427 nM | 15% | COc1ccc2c(c1)CN(S(=O)(=O)CC(CCC1CCCO1)N(O)C=O)CC2 (stereo not drawn) [Example 33, N-hydroxy-N-[1-{[(7-methoxy-3,4-dihydroisoquinolin-2(1H)-yl)sulfonyl]methyl}-3-(tetrahydrofuran-2-yl)propyl]formamide]
12 | – | 35 nM | 353 nM | 42% | CCC(CC)C(CS(=O)(=O)N1CCc2cc(Cl)c(Cl)cc2C1)N(O)C=O (stereo not drawn) [Example 34, N-(1-{[(6,7-dichloro-3,4-dihydroisoquinolin-2(1H)-yl)-sulfonyl]methyl}-2-ethylbutyl)-N-hydroxyformamide]
13 | – | 62 nM | > 5000 nM | 43% | CCC(CC)C(CS(=O)(=O)N1CCc2cc(C(C)C)ccc2C1)N(O)C=O (stereo not drawn) [Example 35, N-(2-ethyl-1-{[(6-isopropyl-3,4-dihydroisoquinolin-2(1H)-yl)sulfonyl]methyl}butyl)-N-hydroxyformamide]
14 | – | 41 nM | 228 nM | 37% | CCC(CC)C(CS(=O)(=O)N1CCc2ccc(Br)cc2C1)N(O)C=O (stereo not drawn) [Example 36, N-(1-{[(7-bromo-3,4-dihydroisoquinolin-2(1H)-yl)sulfonyl]-methyl}-2-ethylbutyl)-N-hydroxyformamide]
15 | – | 35 nM | 1090 nM | 58% | CCC(CC)C(CS(=O)(=O)N1CCc2cc(C(F)(F)F)ccc2C1)N(O)C=O (stereo not drawn) [Example 37, N-[2-ethyl-1-({[6-(trifluoromethyl)-3,4-dihydroisoquinolin-2(1H)-yl]sulfonyl}methyl)butyl]-N-hydroxyformamide]
16 | – | 71 nM | 276 nM | 50% | CCC(CC)C(CS(=O)(=O)N1CCc2ccc(OC)cc2C1)N(O)C=O (stereo not drawn) [Example 38, N-(2-ethyl-1-{[(7-methoxy-3,4-dihydroisoquinolin-2(1H)-yl)sulfonyl]methyl}butyl)-N-hydroxyformamide]
17 | – | 16 nM | 171 nM | 47% | CC(C)C(CS(=O)(=O)N1CCc2cc(Cl)c(Cl)cc2C1)N(O)C=O (stereo not drawn) [Example 39, N-(1-{[(6,7-dichloro-3,4-dihydroisoquinolin-2(1H)-yl)-sulfonyl]methyl}-2-methylpropyl)-N-hydroxyformamide]
18 | – | 77 nM | 1120 nM | 11% | CCCOc1ccc2c(c1)CN(S(=O)(=O)CC(CC(C)(C)C)N(O)C=O)CC2 (stereo not drawn) [Example 40, N-(3,3-dimethyl-1-{[(7-propoxy-3,4-dihydroisoquinolin-2(1H)-yl)sulfonyl]methyl}butyl)-N-hydroxyformamide]
19 | – | 87 nM | 189 nM | 14% | CC(C)(C)CC(CS(=O)(=O)N1CCc2ccc(Cl)cc2C1)N(O)C=O (stereo not drawn) [Example 41, N-(1-{[(7-chloro-3,4-dihydroisoquinolin-2(1H)-yl)sulfonyl]-methyl}-3,3-dimethylbutyl)-N-hydroxyformamide]
20 | – | 31 nM | 611 nM | 35% | CC(C)(C)CC(CS(=O)(=O)N1CCc2cc(Cl)c(Cl)cc2C1)N(O)C=O (stereo not drawn) [Example 42, N-(1-{[(6,7-dichloro-3,4-dihydroisoquinolin-2(1H)-yl)-sulfonyl]methyl}-3,3-dimethylbutyl)-N-hydroxyformamide]
